Source: patent publication US20260248780A1, “PHARMACEUTICAL COMPOSITIONS” (Birdie Biopharmaceuticals, Inc., priority 2017, published 2026)
Values after ≈ are worked out from the molar mass of the structure shown.

Experiments:
Type in all cases: physicochemical
[1] = pKa determination on Sirius T3
Description: The mixtures of freebase and acid were stirred at RT for 2.5 days. Clear solutions obtained were slurried at 5° C. overnight to induce precipitation. If the samples were still clear, they would be subjected to evaporation to dryness at RT, in order to maximize the chance of identifying as many crystalline hits as possible. Resulted solids were isolated and analyzed by XRPD.
pKa was determined on Sirius T3 TM according to the manufacturer's instructions and the parameters for pKa test was listed in Table 5-13.

[2] = Kinetic solubility in water and bio-relevant media (SGF, FaSSIF, FeSSIF) at RT; conditions: for FC: Solid form change / S: Solubility / pH: Final pH of supernatant: RT
Description: (§1) After being centrifuged and separated using 0.45 μm Nylon filter, filtrates were collected for HPLC and pH test, and wet cakes for XRPD characterization. If clear solutions were obtained after 24 hours, accurate concentration and purity were measured for the solutions.

[3] = HPLC purity of clear samples after kinetic solubility test; conditions: clear sample after kinetic solubility test, FeSSIF
Description: as §1

[4] = Polymorph screening of freebase Type A (solid form by XRPD)

## CCOCc1nc2c(N)nc3ccccc3c2n1CC(C)(C)O [Freebase Type A, 1-[4-amino-2-(ethoxymethyl)imidazo-[4,5-c]-quinolin-1-yl]-2-methylpropan-2-ol]
[1]
  pKa: 7.2
[2]; FaSSIF
  solubility kinetic: ~2900 µg/mL (≈ 9.22 mM)
[2]; FaSSIF, 1 hr
  FC: Solid form change: No
  S: Solubility: 2700 µg/mL
  pH: Final pH of supernatant: 7.0
[2]; FaSSIF, 2 hrs
  FC: Solid form change: No
  S: Solubility: 2800 µg/mL
  pH: Final pH of supernatant: 7.0
[2]; FaSSIF, 4 hrs
  FC: Solid form change: No
  S: Solubility: 2800 µg/mL
  pH: Final pH of supernatant: 7.1
[2]; FaSSIF, 24 hrs
  FC: Solid form change: No
  S: Solubility: 2900 µg/mL
  pH: Final pH of supernatant: 7.0
[2]; FeSSIF, 24 hrs
  pH: Final pH of supernatant: 5.4
[2]; SGF and FeSSIF, simulated gastric fluid, SGF/FeSSIF
  solubility kinetic: > 4900 µg/mL
[2]; SGF, 1 hr
  S: Solubility: 2700 µg/mL
  pH: Final pH of supernatant: 3.6
[2]; SGF, 2 hrs
  S: Solubility: 3500 µg/mL
  pH: Final pH of supernatant: 5.0
[2]; SGF, 4 hrs
  S: Solubility: 5000 µg/mL
  pH: Final pH of supernatant: 5.0
[2]; SGF, 24 hrs
  S: Solubility: 5000 µg/mL
  pH: Final pH of supernatant: 4.9
[2]; Water, 1 hr
  FC: Solid form change: No
  S: Solubility: 500 µg/mL
  pH: Final pH of supernatant: 8.4
[2]; Water, 2 hrs
  FC: Solid form change: No
  S: Solubility: 500 µg/mL
  pH: Final pH of supernatant: 8.6
[2]; Water, 4 hrs
  FC: Solid form change: No
  S: Solubility: 500 µg/mL
  pH: Final pH of supernatant: 8.1
[2]; Water, 24 hrs
  FC: Solid form change: No
  S: Solubility: 500 µg/mL
  pH: Final pH of supernatant: 8.1
[2]; water
  Kinetic Solubility at RT: ~0.5 (water) mg/mL
[3]
  HPLC Purity % of Initial: 99.9%
  HPLC Purity Area %: 99.25 Area %
[4]; anti-solvent addition: solvent 1,4-dioxane, anti-solvent Toluene, solids after stirring at 5° C. for 2 days
  Solid Form: Type A
[4]; anti-solvent addition: solvent 2-MeTHF, anti-solvent n-heptane
  Solid Form: Type A + B
[4]; anti-solvent addition: solvent Acetone, anti-solvent H2O, no solid at 5° C., then evaporation
  Solid Form: Type A
[4]; anti-solvent addition: solvent Acetone, anti-solvent MTBE, no solid at 5° C., then evaporation
  Solid Form: Type B
[4]; anti-solvent addition: solvent CHCl3, anti-solvent MTBE
  Solid Form: Type A
[4]; anti-solvent addition: solvent CHCl3, anti-solvent n-heptane
  Solid Form: Type A + B
[4]; anti-solvent addition: solvent DCM, anti-solvent Anisole
  Solid Form: Clear
[4]; anti-solvent addition: solvent DCM, anti-solvent Toluene
  Solid Form: Type A
[4]; anti-solvent addition: solvent DMAc, anti-solvent H2O
  Solid Form: Type A
[4]; anti-solvent addition: solvent DMSO, anti-solvent H2O
  Solid Form: Type A
[4]; anti-solvent addition: solvent EtOH, anti-solvent Anisole, no solid at 5° C., then evaporation
  Solid Form: Type G
[4]; anti-solvent addition: solvent EtOH, anti-solvent n-heptane
  Solid Form: Type A
[4]; anti-solvent addition: solvent Ethyl lactate, anti-solvent n-heptane
  Solid Form: Type A + Sample H
[4]; anti-solvent addition: solvent IBA, anti-solvent Toluene, no solid at 5° C., then evaporation
  Solid Form: Type B
[4]; anti-solvent addition: solvent IPA, anti-solvent H2O, no solid at 5° C., then evaporation
  Solid Form: Clear
[4]; anti-solvent addition: solvent MeOH, anti-solvent H2O
  Solid Form: Type A
[4]; anti-solvent addition: solvent MeOH, anti-solvent MTBE, solids after stirring at 5° C. for 2 days
  Solid Form: Type A
[4]; anti-solvent addition: solvent NMP, anti-solvent H2O
  Solid Form: Type A
[4]; anti-solvent addition: solvent THF, anti-solvent H2O, no solid at 5° C., then evaporation
  Solid Form: Type A
[4]; anti-solvent addition: solvent THF, anti-solvent n-heptane
  Solid Form: Type A + B
[4]; liquid vapor diffusion, RT 6 days: solvent 2-MeTHF, anti-solvent Toluene
  Solid Form: Type A
[4]; liquid vapor diffusion, RT 6 days: solvent Acetone, anti-solvent n-heptane
  Solid Form: Type A
[4]; liquid vapor diffusion, RT 6 days: solvent CHCl3, anti-solvent Toluene
  Solid Form: Type A + B
[4]; liquid vapor diffusion, RT 6 days: solvent DCM, anti-solvent n-heptane
  Solid Form: Type A
[4]; liquid vapor diffusion, RT 6 days: solvent DMAc, anti-solvent MTBE
  Solid Form: Type D
[4]; liquid vapor diffusion, RT 6 days: solvent EtOH, anti-solvent H2O
  Solid Form: Type A
[4]; liquid vapor diffusion, RT 6 days: solvent Ethyl lactate, anti-solvent MTBE
  Solid Form: Clear
[4]; liquid vapor diffusion, RT 6 days: solvent IBA, anti-solvent n-heptane
  Solid Form: Clear
[4]; liquid vapor diffusion, RT 6 days: solvent NMP, anti-solvent MTBE
  Solid Form: Type E
[4]; liquid vapor diffusion, RT 6 days: solvent THF, anti-solvent H2O
  Solid Form: Type B
[4]; polymer induced crystallization: Acetone, Polymer mixture A
  Solid Form: Type A
[4]; polymer induced crystallization: Acetone, Polymer mixture B
  Solid Form: Type A
[4]; polymer induced crystallization: MeOH, Polymer mixture A
  Solid Form: Type A
[4]; polymer induced crystallization: MeOH, Polymer mixture B
  Solid Form: Type B
[4]; polymer induced crystallization: THF, Polymer mixture A
  Solid Form: Type A
[4]; polymer induced crystallization: THF, Polymer mixture B
  Solid Form: Type A
[4]; screening summary: Anti-solvent Addition, 20 experiments
  Crystal Form: Type A, B, G, sample H
[4]; screening summary: Polymer-induced Crystallization, 6 experiments
  Crystal Form: Type A, B
[4]; screening summary: Slow Cooling, 10 experiments
  Crystal Form: Type A, B, F, G
[4]; screening summary: Slow Evaporation, 10 experiments
  Crystal Form: Type A, B
[4]; screening summary: Slurry at RT/50° C., 31 experiments
  Crystal Form: Type A, C
[4]; screening summary: Solid Vapor Diffusion, 13 experiments
  Crystal Form: Type A, C
[4]; screening summary: Solution Vapor Diffusion, 10 experiments
  Crystal Form: Type A, B, D, E
[4]; screening summary: Total, 100 experiments
  Crystal Form: Type A~G, sample H
[4]; slow cooling, then −20° C.: ACN
  Solid Form: Type A
[4]; slow cooling, then −20° C.: Acetone/H2O (1:3)
  Solid Form: Type A
[4]; slow cooling, then −20° C.: Anisole, limited solid, then evaporation at RT
  Solid Form: Type G
[4]; slow cooling, then −20° C.: CHCl3/MTBE (1:3)
  Solid Form: Type B
[4]; slow cooling, then −20° C.: EtOAc
  Solid Form: Type A
[4]; slow cooling, then −20° C.: EtOH/n-heptane (1:3)
  Solid Form: Type A
[4]; slow cooling, then −20° C.: IPAc
  Solid Form: Type A
[4]; slow cooling, then −20° C.: MEK
  Solid Form: Type F
[4]; slow cooling, then −20° C.: MIBK
  Solid Form: Type A + B
[4]; slow cooling, then −20° C.: THF/toluene (1:3)
  Solid Form: Type A + B
[4]; slow evaporation at RT: 2-MeTHF/n-heptane (1:1)
  Solid Form: Type B
[4]; slow evaporation at RT: ACN
  Solid Form: Type A + B
[4]; slow evaporation at RT: Acetone
  Solid Form: Type A
[4]; slow evaporation at RT: CHCl3/n-heptane (1:1)
  Solid Form: Type A + B
[4]; slow evaporation at RT: DCM
  Solid Form: Type A
[4]; slow evaporation at RT: EtOAc
  Solid Form: Type B
[4]; slow evaporation at RT: EtOH/H2O (1:1)
  Solid Form: Type A
[4]; slow evaporation at RT: IPA
  Solid Form: Type A
[4]; slow evaporation at RT: MeOH
  Solid Form: Type A
[4]; slow evaporation at RT: THF
  Solid Form: Type A
[4]; slurry at 50° C., about 3 days: 1,4-dioxane
  Solid Form: Type C
[4]; slurry at 50° C., about 3 days: 2-MeTHF
  Solid Form: Type A
[4]; slurry at 50° C., about 3 days: ACN
  Solid Form: Type A
[4]; slurry at 50° C., about 3 days: Anisole
  Solid Form: Type A
[4]; slurry at 50° C., about 3 days: CHCl3/toluene (1:5)
  Solid Form: Type A
[4]; slurry at 50° C., about 3 days: EtOAc
  Solid Form: Type A
[4]; slurry at 50° C., about 3 days: H2O
  Solid Form: Type A
[4]; slurry at 50° C., about 3 days: IBA
  Solid Form: Type A
[4]; slurry at 50° C., about 3 days: IPA
  Solid Form: Type A
[4]; slurry at 50° C., about 3 days: IPAc
  Solid Form: Type A
[4]; slurry at 50° C., about 3 days: MEK
  Solid Form: Type A
[4]; slurry at 50° C., about 3 days: MIBK
  Solid Form: Type A
[4]; slurry at 50° C., about 3 days: MeOH/H2O (1:5)
  Solid Form: Type A
[4]; slurry at 50° C., about 3 days: THF/n-heptane (1:5)
  Solid Form: Type A
[4]; slurry at RT, 3 days: 1,4-dioxane
  Solid Form: Type A
[4]; slurry at RT, 3 days: 2-MeTHF
  Solid Form: Type A
[4]; slurry at RT, 3 days: ACN
  Solid Form: Type A
[4]; slurry at RT, 3 days: Anisole
  Solid Form: Type A
[4]; slurry at RT, 3 days: DCM/toluene (1:3)
  Solid Form: Type A
[4]; slurry at RT, 3 days: EtOAc
  Solid Form: Type A
[4]; slurry at RT, 3 days: IBA
  Solid Form: Type A
[4]; slurry at RT, 3 days: IPA
  Solid Form: Type A
[4]; slurry at RT, 3 days: IPAc
  Solid Form: Type A
[4]; slurry at RT, 3 days: MEK
  Solid Form: Type A
[4]; slurry at RT, 3 days: MIBK
  Solid Form: Type A
[4]; slurry at RT, 3 days: MeOH/H2O (1:3)
  Solid Form: Type A
[4]; slurry at RT, 3 days: THF/n-heptane (1:3)
  Solid Form: Type A
[4]; slurry at RT, 3 days: acetone/H2O (aw = 0.2)
  Solid Form: Type A
[4]; slurry at RT, 3 days: acetone/H2O (aw = 0.4)
  Solid Form: Type A
[4]; slurry at RT, 3 days: acetone/H2O (aw = 0.6)
  Solid Form: Type A
[4]; slurry at RT, 3 days: acetone/H2O (aw = 0.8)
  Solid Form: Type A
[4]; solid vapor diffusion, RT 7 days: 1,4-dioxane
  Solid Form: Type C
[4]; solid vapor diffusion, RT 7 days: ACN
  Solid Form: Type A
[4]; solid vapor diffusion, RT 7 days: Acetone
  Solid Form: Type A
[4]; solid vapor diffusion, RT 7 days: CHCl3
  Solid Form: Type A
[4]; solid vapor diffusion, RT 7 days: DCM
  Solid Form: Type A
[4]; solid vapor diffusion, RT 7 days: DMF
  Solid Form: Type A
[4]; solid vapor diffusion, RT 7 days: DMSO
  Solid Form: Type A
[4]; solid vapor diffusion, RT 7 days: EtOAc
  Solid Form: Type A
[4]; solid vapor diffusion, RT 7 days: EtOH
  Solid Form: Type A
[4]; solid vapor diffusion, RT 7 days: H2O
  Solid Form: Type A
[4]; solid vapor diffusion, RT 7 days: IPA
  Solid Form: Type A
[4]; solid vapor diffusion, RT 7 days: MeOH
  Solid Form: Type A
[4]; solid vapor diffusion, RT 7 days: THF
  Solid Form: Type A
